Data as given in patent publication US8735414B2 (priority 2009, dated 2014).

Key:
[1] = tested on: bicistronic HCV replicon (replicon RNA, GenBank Accession No. AJ242654); experiment: HCV Replicon Assay; type: cell-based; settings: Hepatitis C virus, 72 h, read-out: Replicon IC50

Compound	melting point [°C]	IC50 [1] [nM]
COc1ccc2c(C#N)c(-c3ccc(S(=O)(=O)N[C@@H](C)C4CC4)cn3)n(C3CCCC3)c2c1 [compound 432, 6-(3-cyano-1-cyclopentyl-6-methoxy-1H-indol-2-yl)-N-[(1S)-1-cyclopropylethyl]pyridine-3-sulfonamide]	199 to 209	< 500
C[C@H](NS(=O)(=O)c1ccc(-c2c(C#N)c3cc(F)ccc3n2CC2CC2)nc1)C(F)(F)F [compound 436, 6-[3-cyano-1-(cyclopropylmethyl)-5-fluoro-1H-indol-2-yl]-N-[(2S)-1,1,1-trifluoropropan-2-yl]pyridine-3-sulfonamide]	165 to 167	< 500
C[C@H](NS(=O)(=O)c1ccc(-c2c(C#N)c3ccc(Cl)cc3n2-c2ccccn2)nc1)C(F)(F)F [compound 437, 6-[6-chloro-3-cyano-1-(pyridin-2-yl)-1H-indol-2-yl]-N-[(2S)-1,1,1-trifluoropropan-2-yl]pyridine-3-sulfonamide]	177 to 178	< 500
N#Cc1c(-c2ccc(S(=O)(=O)NC(CF)CF)cn2)n(-c2ccccn2)c2cc(Cl)ccc12 [compound 438, 6-[6-chloro-3-cyano-1-(pyridin-2-yl)-1H-indol-2-yl]-N-(1,3-difluoropropan-2-yl)pyridine-3-sulfonamide]	219 to 221	< 500
CC(C)NS(=O)(=O)c1ccc(-c2c(C#N)c3cc(F)ccc3n2-c2ccccn2)nc1 [compound 439, 6-[3-cyano-5-fluoro-1-(pyridin-2-yl)-1H-indol-2-yl]-N-(propan-2-yl)pyridine-3-sulfonamide]	208 to 210	< 500
C[C@H](NS(=O)(=O)c1ccc(-c2c(C#N)c3cc(Cl)ccc3n2-c2ccccc2)nc1)C(F)(F)F [compound 441, 6-(5-chloro-3-cyano-1-phenyl-1H-indol-2-yl)-N-[(2S)-1,1,1-trifluoropropan-2-yl]pyridine-3-sulfonamide]	210 to 212	< 500
C[C@H](NS(=O)(=O)c1ccc(-c2c(C#N)c3cc(Cl)ccc3n2-c2ccccn2)nc1)C(F)(F)F [compound 442, 6-[5-chloro-3-cyano-1-(pyridin-2-yl)-1H-indol-2-yl]-N-[(2S)-1,1,1-trifluoropropan-2-yl]pyridine-3-sulfonamide]	186 to 188	< 500
N#Cc1c(-c2ccc(S(=O)(=O)NC(CF)CF)cn2)n(-c2ccccn2)c2ccc(Cl)cc12 [compound 443, 6-[5-chloro-3-cyano-1-(pyridin-2-yl)-1H-indol-2-yl]-N-(1,3-difluoropropan-2-yl)pyridine-3-sulfonamide]	187 to 188	< 500
Cc1cc2c(cc1Cl)c(C#N)c(-c1ccc(S(=O)(=O)NC(CF)CF)cn1)n2C1CCC1 [compound 444, 6-(5-chloro-3-cyano-1-cyclobutyl-6-methyl-1H-indol-2-yl)-N-(1,3-difluoropropan-2-yl)pyridine-3-sulfonamide]	189 to 193	< 500
Cc1cc2c(cc1Cl)c(C#N)c(-c1ccc(S(=O)(=O)N[C@H](C)C(F)(F)F)cn1)n2C1CCC1 [compound 445, 6-(5-chloro-3-cyano-1-cyclobutyl-6-methyl-1H-indol-2-yl)-N-[(2R)-1,1,1-trifluoropropan-2-yl]pyridine-3-sulfonamide]	213 to 215	< 500
Cc1cc2c(cc1Cl)c(C#N)c(-c1ccc(S(=O)(=O)N[C@@H](C)C(F)(F)F)cn1)n2C1CCC1 [compound 446, 6-(5-chloro-3-cyano-1-cyclobutyl-6-methyl-1H-indol-2-yl)-N-[(2S)-1,1,1-trifluoropropan-2-yl]pyridine-3-sulfonamide]	209 to 210	< 500
Cc1cc2c(cc1Cl)c(C#N)c(-c1ncc(S(=O)(=O)NC(CF)CF)cn1)n2C1CCC1 [compound 447, 2-(5-chloro-3-cyano-1-cyclobutyl-6-methyl-1H-indol-2-yl)-N-(1,3-difluoropropan-2-yl)pyrimidine-5-sulfonamide]	275 to 279	< 500
Cc1cc2c(cc1Cl)c(C#N)c(-c1ncc(S(=O)(=O)N[C@@H](C)C(F)(F)F)cn1)n2C1CCC1 [compound 448, 2-(5-chloro-3-cyano-1-cyclobutyl-6-methyl-1H-indol-2-yl)-N-[(2S)-1,1,1-trifluoropropan-2-yl]pyrimidine-5-sulfonamide]	> 300	500 to 2000
C[C@H](NS(=O)(=O)c1cnc(-c2c(C#N)c3ccc(Cl)cc3n2-c2ccccn2)nc1)C(F)(F)F [compound 449]	163 to 166	< 500
N#Cc1c(-c2ncc(S(=O)(=O)NC(CF)CF)cn2)n(-c2ccccn2)c2cc(Cl)ccc12 [compound 450, 2-[6-chloro-3-cyano-1-(pyridin-2-yl)-1H-indol-2-yl]-N-(1,3-difluoropropan-2-yl)pyrimidine-5-sulfonamide]	234 to 235	< 500
C[C@H](NS(=O)(=O)c1cnc(-c2c(C#N)c3cc(F)ccc3n2C2CCC2)nc1)C(F)(F)F [compound 451, 2-(3-cyano-1-cyclobutyl-5-fluoro-1H-indol-2-yl)-N-[(2S)-1,1,1-trifluoropropan-2-yl]pyrimidine-5-sulfonamide]	198 to 203	< 500
N#Cc1c(-c2ncc(S(=O)(=O)NC(CF)CF)cn2)n(C2CCC2)c2ccc(F)cc12 [compound 452, 2-(3-cyano-1-cyclobutyl-5-fluoro-1H-indol-2-yl)-N-(1,3-difluoropropan-2-yl)pyrimidine-5-sulfonamide]	175 to 180	< 500
COc1ccc2c(c1)c(C#N)c(-c1ccc(S(=O)(=O)N[C@@H](C)C(F)(F)F)cn1)n2C1CCC1 [compound 453, 6-(3-cyano-1-cyclobutyl-5-methoxy-1H-indol-2-yl)-N-[(2S)-1,1,1-trifluoropropan-2-yl]pyridine-3-sulfonamide]	181 to 183	< 500
C[C@H](NS(=O)(=O)c1cnc(-c2c(C#N)c3cc(Cl)ccc3n2C2CCC2)nc1)C(F)(F)F [compound 454, 2-(5-chloro-3-cyano-1-cyclobutyl-1H-indol-2-yl)-N-[(2S)-1,1,1-trifluoropropan-2-yl]pyrimidine-5-sulfonamide]	232 to 234	< 500
CC(C)c1ccc2c(C#N)c(-c3ncc(S(=O)(=O)N[C@@H](C)C(F)(F)F)cn3)n(C3CCC3)c2c1 [compound 455, 2-[3-cyano-1-cyclobutyl-6-(propan-2-yl)-1H-indol-2-yl]-N-[(2S)-1,1,1-trifluoropropan-2-yl]pyrimidine-5-sulfonamide]	217 to 222	< 500
CC(C)c1ccc2c(C#N)c(-c3ccc(S(=O)(=O)NC(CF)CF)cn3)n(C(C)C)c2c1 [compound 456, 6-[3-cyano-1,6-di(propan-2-yl)-1H-indol-2-yl]-N-(1,3-difluoropropan-2-yl)pyridine-3-sulfonamide]	165 to 173	< 500
CC(C)c1ccc2c(C#N)c(-c3ccc(S(=O)(=O)NC(CF)CF)cn3)n(C3CCCC3)c2c1 [compound 457, 6-[3-cyano-1-cyclopentyl-6-(propan-2-yl)-1H-indol-2-yl]-N-(1,3-difluoropropan-2-yl)pyridine-3-sulfonamide]	163 to 172	< 500
